The record followed here is US20260242419A1, “A CYCLIC PEPTIDE FOR TRAPPING INTERLEUKIN-1 BETA” (Merck Sharp & Dohme LLC, priority 2023, published 2026).

Non-standard residues stand in square brackets, D forms with d. Residues, ends and D or L forms follow the SMILES beside them. Phe(4-(5-CO2H-2-pyrimidyl)) = N[C@@H](Cc1ccc(-c2ncc(C(=O)O)cn2)cc1)C(=O)O; Phe(4-(4-Ac-piperazinyl)) = CC(=O)N1CCN(c2ccc(C[C@H](N)C(=O)O)cc2)CC1; dPro(4R-(4-pyridylmethyl)) = O=C(O)[C@H]1C[C@@H](Cc2ccncc2)CN1; Trp(βS-Me,4-F) = C[C@@H](c1c[nH]c2cccc(F)c12)[C@H](N)C(=O)O; Bip(4'-COOH) = N[C@@H](Cc1ccc(-c2ccc(C(=O)O)cc2)cc1)C(=O)O; Ala(1-bicyclo(1.1.1)pentyl) = N[C@@H](CC12CC(C1)C2)C(=O)O; dPro(4R-Bzl(4-F)) = O=C(O)[C@H]1C[C@@H](Cc2ccc(F)cc2)CN1; Ala(pyrimidin-5-yl) = N[C@@H](Cc1cncnc1)C(=O)O; Phe(4-COOH) = N[C@@H](Cc1ccc(C(=O)O)cc1)C(=O)O; Pro(cis-4-F) = O=C(O)[C@@H]1C[C@H](F)CN1; Ala(4-THP) = N[C@@H](CC1CCOCC1)C(=O)O; cisHyp = O=C(O)[C@@H]1C[C@H](O)CN1; 4Pal = N[C@@H](Cc1ccncc1)C(=O)O; aThr = C[C@H](O)[C@H](N)C(=O)O; αMeD = C[C@](N)(CC(=O)O)C(=O)O; d(αMeS) = C[C@@](N)(CO)C(=O)O; Dab = NCC[C@H](N)C(=O)O; Aib = CC(C)(N)C(=O)O

In the test the target is T1, IL-1β (Homo sapiens, UniProt P01584).
T1 construct: purchased BioLegend 579404
T1 sequence (P01584 117-269): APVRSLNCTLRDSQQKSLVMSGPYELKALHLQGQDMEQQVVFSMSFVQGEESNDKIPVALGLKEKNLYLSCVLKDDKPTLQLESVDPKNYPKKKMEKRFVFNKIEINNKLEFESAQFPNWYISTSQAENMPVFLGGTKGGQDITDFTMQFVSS
Nature of the test: IL-6 assay in MRC5 cells: inhibition of IL-1β induced IL-6 secretion (AlphaLISA). The test is classed as cell-based. Particulars: inhibition of IL-1β induced IL-6 secretion in MRC5 cells; read-out: MRC5 IC50. The essentials:
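Compound was pre-incubated 1 h at ambient temperature with recombinant human IL-1β at 2λ EC80 before adding human lung fibroblast MRC5 cells (3000/well) in EMEM with 0.025% BSA. After overnight culture at 37 °C, 5% CO2, secreted IL-6 in conditioned medium was measured by AlphaLISA; IC50 from 4-parameter logistic fits.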
(Bead proximity is the source of the signal in Alpha formats.)
In general, IC50 refers to the concentration needed to halve the response being measured. On to `C[C@@H](c1c[nH]c2cccc(F)c12)[C@@H]1NC(=O)[C@@H]2C[C@H](F)CN2C(=O)CNC(=O)[C@H](Cc2ccc(C(=O)O)cc2)NC(=O)[C@H](CC23CC(C2)C3)NC(=O)[C@H](Cc2ccc(-c3ccc(C(=O)O)cc3)cc2)NC(=O)[C@H]2C[C@@H](Cc3ccncc3)CN2C(=O)CNC(=O)[C@H](CCN)NC(=O)[C@H](CCC(N)=O)NC(=O)[C@H](CC2CCOCC2)NC(=O)[C@](C)(CC(=O)O)NC(=O)[C@H](Cc2c[nH]c3ccccc23)NC(=O)[C@H](CO)NC(=O)C(C)(C)NC1=O` [Example 193] (cyclo([Bip(4'-COOH)][Ala(1-bicyclo(1.1.1)pentyl)][Phe(4-COOH)]G[Pro(cis-4-F)][Trp(βS-Me,4-F)][Aib]SW[αMeD][Ala(4-THP)]Q[Dab]G[dPro(4R-(4-pyridylmethyl))])), for which the IC50 worked out at 0.011 nM.

For `C[C@@H](c1c[nH]c2cccc(F)c12)[C@@H]1NC(=O)[C@@H]2C[C@H](O)CN2C(=O)CNC(=O)[C@H](Cc2ccc(C(=O)O)cc2)NC(=O)[C@H](Cc2ccncc2)NC(=O)[C@H](Cc2ccc(-c3ccc(C(=O)O)cc3)cc2)NC(=O)[C@H]2C[C@@H](Cc3ccncc3)CN2C(=O)CNC(=O)[C@H](CCN)NC(=O)[C@H](CCC(N)=O)NC(=O)[C@H](Cc2cncnc2)NC(=O)C(C)(C)NC(=O)[C@H](Cc2c[nH]c3ccccc23)NC(=O)[C@H](CO)NC(=O)C(C)(C)NC1=O` [Example 194] (cyclo([Bip(4'-COOH)][4Pal][Phe(4-COOH)]G[cisHyp][Trp(βS-Me,4-F)][Aib]SW[Aib][Ala(pyrimidin-5-yl)]Q[Dab]G[dPro(4R-(4-pyridylmethyl))])), the concentration for half-maximal inhibition (IC50) was 0.014 nM.

For `C[C@@H](c1c[nH]c2cccc(F)c12)[C@@H]1NC(=O)[C@@H]2C[C@H](O)CN2C(=O)CNC(=O)[C@H](Cc2ccc(C(=O)O)cc2)NC(=O)[C@H](Cc2ccncc2)NC(=O)[C@H](Cc2ccc(-c3ccc(C(=O)O)cc3)cc2)NC(=O)[C@H]2C[C@@H](Cc3ccncc3)CN2C(=O)CNC(=O)[C@H](CCN)NC(=O)[C@H](CCC(N)=O)NC(=O)[C@H](Cc2cncnc2)NC(=O)[C@@](C)(CO)NC(=O)[C@H](Cc2c[nH]c3ccccc23)NC(=O)[C@H](CO)NC(=O)C(C)(C)NC1=O` [Example 195] (cyclo([Bip(4'-COOH)][4Pal][Phe(4-COOH)]G[cisHyp][Trp(βS-Me,4-F)][Aib]SW[d(αMeS)][Ala(pyrimidin-5-yl)]Q[Dab]G[dPro(4R-(4-pyridylmethyl))])), the half-inhibitory concentration (IC50) was determined as 0.013 nM.

Take `CC(=O)N1CCN(c2ccc(C[C@@H]3NC(=O)[C@H]4C[C@@H](Cc5ccc(F)cc5)CN4C(=O)CNC(=O)[C@H](CCN)NC(=O)[C@H](CCC(N)=O)NC(=O)[C@H](Cc4cncnc4)NC(=O)C(C)(C)NC(=O)[C@H](Cc4c[nH]c5ccccc45)NC(=O)[C@H](CO)NC(=O)C(C)(C)NC(=O)[C@H]([C@@H](C)c4c[nH]c5cccc(F)c45)NC(=O)[C@@H]4C[C@H](O)CN4C(=O)CNC(=O)[C@H](Cc4ccc(C(=O)O)cc4)NC(=O)[C@H](Cc4ccncc4)NC3=O)cc2)CC1` [Example 196] (cyclo([Phe(4-(4-Ac-piperazinyl))][4Pal][Phe(4-COOH)]G[cisHyp][Trp(βS-Me,4-F)][Aib]SW[Aib][Ala(pyrimidin-5-yl)]Q[Dab]G[dPro(4R-Bzl(4-F))])): the IC50 was 0.038 nM.

Consider `C[C@@H](c1c[nH]c2cccc(F)c12)[C@@H]1NC(=O)[C@@H]2C[C@H](O)CN2C(=O)CNC(=O)[C@H](Cc2ccc(C(=O)O)cc2)NC(=O)[C@H](Cc2ccncc2)NC(=O)[C@H](Cc2ccc(-c3ncc(C(=O)O)cn3)cc2)NC(=O)[C@H]2C[C@@H](Cc3ccncc3)CN2C(=O)CNC(=O)[C@H](CCN)NC(=O)[C@H](CCC(N)=O)NC(=O)[C@H](Cc2cncnc2)NC(=O)C(C)(C)NC(=O)[C@H](Cc2c[nH]c3ccccc23)NC(=O)[C@H](CO)NC(=O)C(C)(C)NC1=O` [Example 197] (cyclo([Phe(4-(5-CO2H-2-pyrimidyl))][4Pal][Phe(4-COOH)]G[cisHyp][Trp(βS-Me,4-F)][Aib]SW[Aib][Ala(pyrimidin-5-yl)]Q[Dab]G[dPro(4R-(4-pyridylmethyl))])), for which the IC50 came out at 0.036 nM.

As to `C[C@@H](c1c[nH]c2cccc(F)c12)[C@@H]1NC(=O)[C@@H]2C[C@H](F)CN2C(=O)CNC(=O)[C@H](Cc2ccc(C(=O)O)cc2)NC(=O)[C@H](CC23CC(C2)C3)NC(=O)[C@H](Cc2ccc(-c3ncc(C(=O)O)cn3)cc2)NC(=O)[C@H]2C[C@@H](Cc3ccncc3)CN2C(=O)CNC(=O)[C@H](CCN)NC(=O)[C@H](CCC(N)=O)NC(=O)[C@H](Cc2cncnc2)NC(=O)C(C)(C)NC(=O)[C@H](Cc2c[nH]c3ccccc23)NC(=O)[C@H](CO)NC(=O)C(C)(C)NC1=O` [Example 198] (cyclo([Phe(4-(5-CO2H-2-pyrimidyl))][Ala(1-bicyclo(1.1.1)pentyl)][Phe(4-COOH)]G[Pro(cis-4-F)][Trp(βS-Me,4-F)][Aib]SW[Aib][Ala(pyrimidin-5-yl)]Q[Dab]G[dPro(4R-(4-pyridylmethyl))])), the IC50 came to 0.024 nM.

Take `C[C@@H](c1c[nH]c2cccc(F)c12)[C@@H]1NC(=O)[C@@H]2C[C@H](O)CN2C(=O)CNC(=O)[C@H](Cc2ccc(C(=O)O)cc2)NC(=O)[C@H](Cc2ccncc2)NC(=O)[C@H](Cc2ccc(-c3ccc(C(=O)O)cc3)cc2)NC(=O)[C@H]2C[C@@H](Cc3ccncc3)CN2C(=O)CNC(=O)[C@H](CO)NC(=O)[C@H](CCC(N)=O)NC(=O)[C@H](CC2CCOCC2)NC(=O)[C@](C)(CC(=O)O)NC(=O)[C@H](Cc2c[nH]c3ccccc23)NC(=O)[C@H](CO)NC(=O)C(C)(C)NC1=O` [Example 199] (cyclo([Bip(4'-COOH)][4Pal][Phe(4-COOH)]G[cisHyp][Trp(βS-Me,4-F)][Aib]SW[αMeD][Ala(4-THP)]QSG[dPro(4R-(4-pyridylmethyl))])): the IC50 stood at 0.032 nM.

Take `C[C@@H](c1c[nH]c2cccc(F)c12)[C@@H]1NC(=O)[C@@H]2C[C@H](F)CN2C(=O)CNC(=O)[C@H](Cc2ccc(C(=O)O)cc2)NC(=O)[C@H](Cc2ccncc2)NC(=O)[C@H](Cc2ccc(-c3ccc(C(=O)O)cc3)cc2)NC(=O)[C@H]2C[C@@H](Cc3ccncc3)CN2C(=O)CNC(=O)[C@H](CCN)NC(=O)[C@H](CCC(N)=O)NC(=O)[C@H](CC2CCOCC2)NC(=O)[C@](C)(CC(=O)O)NC(=O)[C@H](Cc2c[nH]c3ccccc23)NC(=O)[C@H](CO)NC(=O)C(C)(C)NC1=O` [Example 200] (cyclo([Bip(4'-COOH)][4Pal][Phe(4-COOH)]G[Pro(cis-4-F)][Trp(βS-Me,4-F)][Aib]SW[αMeD][Ala(4-THP)]Q[Dab]G[dPro(4R-(4-pyridylmethyl))])): the concentration for half-maximal inhibition (IC50) was determined as 0.014 nM.

On to `C[C@@H](c1c[nH]c2cccc(F)c12)[C@@H]1NC(=O)[C@@H]2C[C@H](O)CN2C(=O)CNC(=O)[C@H](Cc2ccc(C(=O)O)cc2)NC(=O)[C@H](Cc2ccncc2)NC(=O)[C@H](Cc2ccc(-c3ccc(C(=O)O)cc3)cc2)NC(=O)[C@H]2C[C@@H](Cc3ccncc3)CN2C(=O)CNC(=O)[C@H](CCN)NC(=O)[C@H](CCC(N)=O)NC(=O)[C@H](CC2CCOCC2)NC(=O)[C@](C)(CC(=O)O)NC(=O)[C@H](Cc2c[nH]c3ccccc23)NC(=O)[C@H](CO)NC(=O)C(C)(C)NC1=O` [Example 201] (cyclo([Bip(4'-COOH)][4Pal][Phe(4-COOH)]G[cisHyp][Trp(βS-Me,4-F)][Aib]SW[αMeD][Ala(4-THP)]Q[Dab]G[dPro(4R-(4-pyridylmethyl))])), for which the IC50 was determined as 0.019 nM.

As to `C[C@H](O)[C@@H]1NC(=O)[C@](C)(CC(=O)O)NC(=O)[C@H](Cc2c[nH]c3ccccc23)NC(=O)[C@H](CO)NC(=O)C(C)(C)NC(=O)[C@H]([C@@H](C)c2c[nH]c3cccc(F)c23)NC(=O)[C@@H]2C[C@H](F)CN2C(=O)CNC(=O)[C@H](Cc2ccc(C(=O)O)cc2)NC(=O)[C@H](CC23CC(C2)C3)NC(=O)[C@H](Cc2ccc(-c3ccc(C(=O)O)cc3)cc2)NC(=O)[C@H]2C[C@@H](Cc3ccncc3)CN2C(=O)CNC(=O)[C@H](CCN)NC(=O)[C@H](CCC(N)=O)NC1=O` [Example 202] (cyclo([Bip(4'-COOH)][Ala(1-bicyclo(1.1.1)pentyl)][Phe(4-COOH)]G[Pro(cis-4-F)][Trp(βS-Me,4-F)][Aib]SW[αMeD][aThr]Q[Dab]G[dPro(4R-(4-pyridylmethyl))])), the IC50 stood at 0.013 nM.

Turning to `CC(C)[C@@H]1NC(=O)[C@](C)(CC(=O)O)NC(=O)[C@H](Cc2c[nH]c3ccccc23)NC(=O)[C@H](CO)NC(=O)C(C)(C)NC(=O)[C@H]([C@@H](C)c2c[nH]c3cccc(F)c23)NC(=O)[C@@H]2C[C@H](F)CN2C(=O)CNC(=O)[C@H](Cc2ccc(C(=O)O)cc2)NC(=O)[C@H](CC23CC(C2)C3)NC(=O)[C@H](Cc2ccc(-c3ccc(C(=O)O)cc3)cc2)NC(=O)[C@H]2C[C@@H](Cc3ccncc3)CN2C(=O)CNC(=O)[C@H](CCN)NC(=O)[C@H](CCC(N)=O)NC1=O` [Example 203] (cyclo([Bip(4'-COOH)][Ala(1-bicyclo(1.1.1)pentyl)][Phe(4-COOH)]G[Pro(cis-4-F)][Trp(βS-Me,4-F)][Aib]SW[αMeD]VQ[Dab]G[dPro(4R-(4-pyridylmethyl))])), the IC50 stood at 0.016 nM.

On to `C[C@@H](c1c[nH]c2cccc(F)c12)[C@@H]1NC(=O)[C@@H]2C[C@H](F)CN2C(=O)CNC(=O)[C@H](Cc2ccc(C(=O)O)cc2)NC(=O)[C@H](CC23CC(C2)C3)NC(=O)[C@H](Cc2ccc(-c3ccc(C(=O)O)cc3)cc2)NC(=O)[C@H]2C[C@@H](Cc3ccncc3)CN2C(=O)CNC(=O)[C@H](CCN)NC(=O)[C@H](CCC(N)=O)NC(=O)[C@H](CC2CCOCC2)NC(=O)[C@@](C)(CO)NC(=O)[C@H](Cc2c[nH]c3ccccc23)NC(=O)[C@H](CO)NC(=O)C(C)(C)NC1=O` [Example 204] (cyclo([Bip(4'-COOH)][Ala(1-bicyclo(1.1.1)pentyl)][Phe(4-COOH)]G[Pro(cis-4-F)][Trp(βS-Me,4-F)][Aib]SW[d(αMeS)][Ala(4-THP)]Q[Dab]G[dPro(4R-(4-pyridylmethyl))])), for which the IC50 amounted to 0.017 nM.
